Test results as given in US20200069714A1, “AMINOGLYCOSIDE POTENTIATION FOR TREATMENT OF PULMONARY BACTERIAL INFECTION” (Enbiotix, Inc., priority 2016, published 2020).
“Also recorded” adds a separate entry of the source.

Legend:
[1] = test system: PAO1 laboratory strains of Pseudomonas aeruginosa; assay: planktonic stationary phase (PSP) time kill potentiation assay, laboratory strain; format: cell-based
Procedure: (§1) The following examples use an in vitro potentiation assay, termed planktonic stationary phase (PSP) time kill assay. In this assay, bacterial cultures in planktonic stationary phase are used to select for bacterial persisters. Experiments are conducted using the time-kill method (CLSI M26), to evaluate bacterial strains, varying the concentration of aminoglycoside and potentiator. Cultures of persisters are generated by growing the bacteria in lysogeny broth (LB) medium for 16 hours. After 4 hr of exposure to the aminoglycoside plus potentiator combination in M9 minimal medium, cells are enumerated on LB plates.
Tobramycin has been measured at about 50 to 90 μg/ml of tobramycin in the lung epithelial lining after delivery of a 300 mg dose of tobramycin to cystic fibrosis patients by nebulizer. Ruddy J. et al., Sputum Tobramvcin Concentrations in Cystic Fibrosis Patients with Repeated Administration of Inhaled Tobramycin, J. of Aerosol Med. and Pulmon. Drug Del. 26(2):69-75 (2013).

[2] = test system: tobramycin-sensitive COPD clinical isolates; assay: PSP potentiation assay with COPD clinical isolates; format: cell-based, Pseudomonas aeruginosa; details: 15 mM fumarate; early or late stage COPD isolates
[3] = test system: Human Airway Epithelial cells infected with Pseudomonas; details: in combination with tobramycin
Procedure: The impact of fumarate on Human Airway Epithelial cells was tested using an LDH assay. See Moreau-Marquis S, Tobramycin and FDA-Approved Iron Chelators Eliminate Pseudomonas aeruginosa Biofilms on Cystic Fibrosis Cells, Am. J. Respir. Cell Mol. Biol. Vol. 41, 305-313 (2009). LDH levels are measured in the medium (Apical and Basolateral fluids) and inside cells. Cytotoxicity can be expressed as: [LDHAP-BL/(LDHPAP-BL+LDHcells)]×100. […] Results are normalized to PAO1 untreated for 100% cytotoxicity. Significance (*) is between strain plus tobramycin and strain plus tobramycin with potentiator.

PAO1 strain = assay: potentiation assay in the presence of tobramycin and azithromycin; format: cell-based, Pseudomonas aeruginosa; details: 15 mM fumarate
Procedure: as §1
The potentiation effect was tested in the presence of both tobramycin and azithromycin. […] Results are for PAO1 strain.

naïve bacterial biofilm [4] = assay: colony biofilm assay; format: cell-based; details: 15 mM fumarate, naïve cultures
Procedure: (§2) The potentiation effect for tobramycin was tested in two biofilm assays: colony biofilm assay and 96-well plate biofilm assay.

naïve bacterial biofilm [5] = assay: 96-well plate biofilm assay; format: cell-based; details: 15 mM fumarate, naïve cultures
Procedure: as §2

[6] = test system: P. aeruginosa mucoid and non-mucoid CF clinical isolates; assay: colony biofilm assay with CF clinical isolates; format: cell-based; details: fumarate with tobramycin
Procedure: as §2

[7] = potentiation in artificial sputum media; format: cell-based; details: 15 mM fumarate; with and without amino acids
Procedure: In the presence of artificial sputum media with and without amino acids, some tolerance is observed, but the potentiation of tobramycin with 15 mM fumarate remains an improvement of several logs (FIG. 9).

[8] = potentiation in the presence of CF patient sputum; format: cell-based
[9] = cited from earlier work

Structure (SMILES)	potentiation of tobramycin sensitivity in the persister assay ([1]; 15 mM fumarate, PAO1, 4 hr exposure in M9 minimal medium)	potentiation of tobramycin action against COPD strains [2]	fumarate concentration with potential to decrease airway inflammation [3]	potentiation of tobramycin in the presence of azithromycin (PAO1 strain)	potentiation of tobramycin in colony biofilm assay (naïve bacterial biofilm [4])	potentiation of tobramycin in 96-well plate biofilm assay (naïve bacterial biofilm [5])	effect on P. aeruginosa in colony biofilms from CF clinical isolates [6]	potentiation of tobramycin in artificial sputum media [7]	potentiation in the presence of CF sputum [8] [logs]	tobramycin concentration at which maximum bactericidal activity was observed ([1]; with 15 mM fumarate (Met1)) [µg/mL]	mean tobramycin concentration in expectorated sputum ([9]; 10 minutes after delivery of 300 mg by nebulizer, CF patients)	tobramycin concentration in the lung epithelial fluid (induced sputum), estimated ([9]; after 300 mg delivered by nebulizer) [µg/g]
O=C(O)/C=C/C(=O)O [fumarate]	over 5 logs	effective to potentiate tobramycin action against all COPD strains tested	above 7.5 mM	over 3 logs	potentiates tobramycin action; also recorded: shows potentiation of tobramycin	potentiates tobramycin action; also recorded: shows potentiation of tobramycin	eradication of P. aeruginosa	several logs	3	–	–	–
NC[C@H]1O[C@H](O[C@H]2[C@H](O)[C@@H](O[C@H]3O[C@H](CO)[C@@H](O)[C@H](N)[C@H]3O)[C@H](N)C[C@@H]2N)[C@H](N)C[C@@H]1O [tobramycin]	–	–	–	–	–	–	–	–	–	16	1,237 μg/g of sputum	~128
